Measurements taken from patent US12466849B2, “Anti-viral and anti-tumoral compounds” (YEDA RESEARCH AND DEVELOPMENT CO. LTD, priority 2020, dated 2025).
Where two headings read alike, the source gives them in different places. Residues, ends and D or L forms follow the SMILES beside them. *: point of attachment. Cbz = O=C(OCc1ccccc1)*; CH2F = FC*

Legend:
[1] = system: Epstein-Barr virus (EBV), Akata strain; assay: microbe, parasite or virus in culture; conditions: human gammaherpesvirus 4, Akata, 72 h
MOLT-3 cells = conditions: human, 7 d
in vitro [2] = conditions: human
[3] = system: BK virus (BKV), Gardner strain; design: SI50 / SI90: unit not given beside the values
[4] = system: Epstein-Barr virus (EBV), Akata strain; design: SI50 / SI90: unit not given beside the values
in vitro [5] = conditions: African green monkey
[6] = system: BK virus (BKV), Gardner strain; assay: microbe, parasite or virus in culture; conditions: Betapolyomavirus hominis, HFF
JC virus (JCV) = assay: microbe, parasite or virus in culture; conditions: JC polyomavirus, COS-7
MERS-CoV (EMC) = type: cell-based; conditions: SI = CC50/EC50
[7] = system: SARS-CoV-2 (USA-WA1/2020); type: cell-based; conditions: compound replenished daily, SI = CC50/EC50
[8] = system: SARS-CoV-2 (USA-WA1/2020); conditions: for SI50 (SI): SARS-CoV-2, SI = CC50/EC50
[9] = system: enterovirus-68 (EV-68, US/DY/14-18953)
[10] = system: dengue virus-2 (DENV-2, New Guinea C); conditions: SI = CC50/EC50
[11] = system: Tacaribe virus (TCRV, TRVL-11573); design: SI50 (SI): unit not given beside the values
[12] = system: Influenza B/Florida/4/2006 (Yamagata)
[13] = system: respiratory syncytial virus (RSV, A2)
[14] = system: influenza/California/07/2009 (H1N1)pdm09

For `Nc1ccn(C[C@@H](CO)OCP(=O)(O)O)c(=O)n1` [CDV, Cidofovir, reference compound], the EC50 [1] was 9.23 µM, the EC90 [1] was 29.9 µM and the CC50 (MOLT-3 cells) was 97 µM. The CC50 at 7 d (in vitro [2]) was 101 µM, the SI50 [3] was greater than 35 and the SI50 [4] was greater than 11. The SI90 [4] was greater than 3, the CC50 (in vitro [5]) was greater than 150 µM and the EC50 [6] was 4.62 µM. It also gave an EC90 [6] of 106 µM, an EC50 ([6]; 168 h) of 4.3 µM and an EC90 ([6]; 168 h) of 24.1 µM. For the same compound, the EC50 (JC virus (JCV)) was 5.66 µM and the EC90 (JC virus (JCV)) was 107 µM.

In the case of `CC(C)CC(NC(=O)OCc1ccccc1)C(=O)NC(CCC(=O)N(C)C)C(=O)CF` (stereo not drawn) [M128533, Z-Leu-Gln(NMe2)-FMK, reference compound] (Cbz-Leu-Glu(NMe2)-CH2F; configuration not given here), the “SI50 (SI)” value (MERS-CoV (EMC)) is reported as greater than 13, the CC50 (SARS-CoV-2) is reported as greater than 100 µg/mL and the EQ50 (SARS-CoV-2) is reported as 0.33 µg/mL. It also gave an SI (SARS-CoV-2; SARS-CoV-2, SI = CC50/EC50) greater than 300, an SI50 [7] greater than 260 and a CC50 [8] greater than 100 µg/mL. For the same compound, the “SI50 (SI)” value [8] was greater than 1100, the SI (SARS-CoV; SARS-CoV, SI = CC50/EC50) was greater than 1300 and the EQ50 (SARS-CoV; SARS-CoV, Vero 76 cells, positive control) was 0.075 µg/mL. It also gave a CC50 (SARS-CoV; Vero 76 cells without virus, positive control) greater than 100 µg/mL.

In the case of `CC(C)(C)C(=O)SCCOP(=O)(OCCSC(=O)C(C)(C)C)OCC1=CC(O)C(n2ccc(=O)[nH]c2=O)O1` (stereo not drawn) [SATE-ddhU], the “SI50 (SI)” value (MERS-CoV (EMC)) is reported as 0, the CC50 [9] is reported as greater than 100 µM and the “SI50 (SI)” value ([9]; EV-68, SI = CC50/EC50) is reported as 0. The SI50 [7] was greater than 6.7, the “SI50 (SI)” value [10] was 0 and the CC50 [11] was 170 µM. The “SI50 (SI)” value [11] was 0, the Activity [3] was “LO (key: NA (Not Active) SI50 = 0-3.9; LO (Slightly Active) SI50 = 4-9.9; MOD (Moderately Active) SI50 = 10-19.9; HI (Highly Active) SI50 = ≥20)” and the CC50 [3] was greater than 150 µM. For the same compound, the EC50 [3] was 21.3 µM, the EC90 [3] was greater than 150 µM and the SI50 [3] was greater than 7. The SI90 [3] was 1, the CC50 [12] was 560 µM and the “SI50 (SI)” value ([12]; Influenza B, SI = CC50/EC50) was 0. For the same compound, the CC50 [13] was 180 µM, the “SI50 (SI)” value ([13]; RSV, SI = CC50/EC50) was 0 and the CC50 [8] was 76 µM. For the same compound, the “SI50 (SI)” value [8] was 3.5, the Activity [4] was “NA (key: NA (Not Active) SI50 = 0-3.9; MOD (Moderately Active) SI50 = 4-9.9; HI (Highly Active) SI50 = ≥10)” and the CC50 [4] was 109 µM. It also gave an EC50 [4] greater than 30 µM, an EC90 [4] greater than 30 µM and an SI50 [4] of less than 4. The SI90 [4] was less than 4, the CC50 [14] was 560 µM and the “SI50 (SI)” value ([14]; Influenza(H1N1), SI = CC50/EC50) was 0.
